Tested on: 885724-159-R-J1-PDC complex spheroid viability
Assay: Anticancer human tumor 885724-159-R-J1-PDC patient-derived pancreatic adenocarcinoma cell line growth inhibition [POLQ]
Details: for IC50: curve of first compound; for viability, T/C: stronger effect = lower value
How it was run: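 Complex spheroid viability model combining PDC tumour cells with endothelial (HUVEC) and MSC stromal cells. Novobiocin, ART-558 or RP6685 were tested singly and in combination with standard and investigational anticancer drugs. Each was titrated in half-log steps from near clinical Cmax, or from 10 microM where Cmax was unknown.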

[1] = second compound 0.0316 µM, first compound 0.0316 µM
[2] = second compound 0.0316 µM, first compound 0.1 µM
[3] = second compound 0.0316 µM, first compound 0.316 µM
[4] = second compound 0.0316 µM, first compound 1 µM
[5] = second compound 0.0316 µM, first compound 3.16 µM
[6] = second compound 0.0316 µM, first compound 10 µM
[7] = second compound 0.1 µM, first compound 0.0316 µM
[8] = second compound 0.1 µM, first compound 0.1 µM
[9] = second compound 0.1 µM, first compound 0.316 µM
[10] = second compound 0.1 µM, first compound 1 µM
[11] = second compound 0.1 µM, first compound 3.16 µM
[12] = second compound 0.1 µM, first compound 10 µM
[13] = second compound 0.316 µM, first compound 0.0316 µM
[14] = second compound 0.316 µM, first compound 0.1 µM
[15] = second compound 0.316 µM, first compound 0.316 µM
[16] = second compound 0.316 µM, first compound 1 µM
[17] = second compound 0.316 µM, first compound 3.16 µM
[18] = second compound 0.316 µM, first compound 10 µM
[19] = second compound 1 µM, first compound 0.0316 µM
[20] = second compound 1 µM, first compound 0.1 µM
[21] = second compound 1 µM, first compound 0.316 µM
[22] = second compound 1 µM, first compound 1 µM
[23] = second compound 1 µM, first compound 3.16 µM
[24] = second compound 1 µM, first compound 10 µM
[25] = second compound 3.16 µM, first compound 0.0316 µM
[26] = second compound 3.16 µM, first compound 0.1 µM
[27] = second compound 3.16 µM, first compound 0.316 µM
[28] = second compound 3.16 µM, first compound 1 µM
[29] = second compound 3.16 µM, first compound 3.16 µM
[30] = second compound 3.16 µM, first compound 10 µM
[31] = second compound 10 µM, first compound 0.0316 µM
[32] = second compound 10 µM, first compound 0.1 µM
[33] = second compound 10 µM, first compound 0.316 µM
[34] = second compound 10 µM, first compound 1 µM
[35] = second compound 10 µM, first compound 3.16 µM
[36] = second compound 10 µM, first compound 10 µM
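Further: spheroids exposed to compounds for 7 days.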

SMILES: C#Cc1c(F)ccc2cc(O)cc(-c3ncc4c(N5CC6CCC(C5)N6)nc(OCC56CCCN5CC(F)C6)nc4c3F)c12 (stereo unspecified) + Nc1ccc(C#CCN(C(=O)Cc2ncc(C(F)(F)F)cc2C(F)(F)F)c2ccc(F)cc2)nn1
- IC50 (second compound 0.0316 µM): 2.19 µM
- IC50 (second compound 0.1 µM): 3.2 µM
- IC50 (second compound 0.316 µM): 2.78 µM
- IC50 (second compound 1 µM): 2.95 µM
- IC50 (second compound 3.16 µM): 3.04 µM
- IC50 (second compound 10 µM): 3.03 µM
- viability, T/C [1]: 90.8%
- viability, T/C [2]: 92.6%
- viability, T/C [3]: 90.7%
- viability, T/C [4]: 64.2%
- viability, T/C [5]: 44.2%
- viability, T/C [6]: 23.8%
- viability, T/C [7]: 95.9%
- viability, T/C [8]: 100%
- viability, T/C [9]: 93.9%
- viability, T/C [10]: 73%
- viability, T/C [11]: 52.1%
- viability, T/C [12]: 25.3%
- viability, T/C [13]: 116%
- viability, T/C [14]: 88.4%
- viability, T/C [15]: 84.3%
- viability, T/C [16]: 71.2%
- viability, T/C [17]: 50.6%
- viability, T/C [18]: 23.4%
- viability, T/C [19]: 89.9%
- viability, T/C [20]: 96.6%
- viability, T/C [21]: 86.7%
- viability, T/C [22]: 71.3%
- viability, T/C [23]: 49.6%
- viability, T/C [24]: 24.2%
- viability, T/C [25]: 85.3%
- viability, T/C [26]: 87.2%
- viability, T/C [27]: 89.1%
- viability, T/C [28]: 75.9%
- viability, T/C [29]: 49.5%
- viability, T/C [30]: 24.5%
- viability, T/C [31]: 98.6%
- viability, T/C [32]: 89%
- viability, T/C [33]: 96.8%
- viability, T/C [34]: 72.6%
- viability, T/C [35]: 50.4%
- viability, T/C [36]: 22.9%

SMILES: COc1cc2cc(C(=O)CCC(=O)O)sc2cc1OC + COC1C(OC(N)=O)C(O)C(Oc2ccc3c(O)c(NC(=O)c4ccc(O)c(CC=C(C)C)c4)c(=O)oc3c2C)OC1(C)C
- IC50 (second compound 0.0316 µM): > 10 µM
- IC50 (second compound 0.1 µM): > 10 µM
- IC50 (second compound 0.316 µM): > 10 µM
- IC50 (second compound 1 µM): > 10 µM
- IC50 (second compound 3.16 µM): > 10 µM
- IC50 (second compound 10 µM): > 10 µM
- viability, T/C [1]: 96.4%
- viability, T/C [2]: 97.6%
- viability, T/C [3]: 100%
- viability, T/C [4]: 93.6%
- viability, T/C [5]: 96.8%
- viability, T/C [6]: 86.2%
- viability, T/C [7]: 100%
- viability, T/C [8]: 96.3%
- viability, T/C [9]: 102%
- viability, T/C [10]: 109%
- viability, T/C [11]: 109%
- viability, T/C [12]: 86.6%
- viability, T/C [13]: 101%
- viability, T/C [14]: 101%
- viability, T/C [15]: 97.2%
- viability, T/C [16]: 103%
- viability, T/C [17]: 113%
- viability, T/C [18]: 81%
- viability, T/C [19]: 109%
- viability, T/C [20]: 92.5%
- viability, T/C [21]: 95.6%
- viability, T/C [22]: 96%
- viability, T/C [23]: 104%
- viability, T/C [24]: 76.2%
- viability, T/C [25]: 100%
- viability, T/C [26]: 96.6%
- viability, T/C [27]: 95.9%
- viability, T/C [28]: 101%
- viability, T/C [29]: 113%
- viability, T/C [30]: 79.8%
- viability, T/C [31]: 96.8%
- viability, T/C [32]: 105%
- viability, T/C [33]: 111%
- viability, T/C [34]: 93.4%
- viability, T/C [35]: 87.5%
- viability, T/C [36]: 83.4%

SMILES: CCCS(=O)(=O)Nc1ccc(F)c(C(=O)c2c[nH]c3ncc(-c4ccc(Cl)cc4)cc23)c1F + Cc1cccc(N(C)C(=O)C2C(O)CCN2c2nc(C)cc(C(F)(F)F)c2C#N)c1
- IC50 (second compound 0.0316 µM): > 10 µM
- IC50 (second compound 0.1 µM): > 10 µM
- IC50 (second compound 0.316 µM): > 10 µM
- IC50 (second compound 1 µM): > 10 µM
- IC50 (second compound 3.16 µM): > 10 µM
- IC50 (second compound 10 µM): > 10 µM
- viability, T/C [1]: 100%
- viability, T/C [2]: 118%
- viability, T/C [3]: 116%
- viability, T/C [4]: 142%
- viability, T/C [5]: 140%
- viability, T/C [6]: 94.6%
- viability, T/C [7]: 99.8%
- viability, T/C [8]: 111%
- viability, T/C [9]: 122%
- viability, T/C [10]: 142%
- viability, T/C [11]: 158%
- viability, T/C [12]: 99.4%
- viability, T/C [13]: 103%
- viability, T/C [14]: 112%
- viability, T/C [15]: 135%
- viability, T/C [16]: 158%
- viability, T/C [17]: 158%
- viability, T/C [18]: 100%
- viability, T/C [19]: 117%
- viability, T/C [20]: 102%
- viability, T/C [21]: 123%
- viability, T/C [22]: 144%
- viability, T/C [23]: 160%
- viability, T/C [24]: 97.5%
- viability, T/C [25]: 108%
- viability, T/C [26]: 109%
- viability, T/C [27]: 121%
- viability, T/C [28]: 155%
- viability, T/C [29]: 151%
- viability, T/C [30]: 86.6%
- viability, T/C [31]: 101%
- viability, T/C [32]: 105%
- viability, T/C [33]: 143%
- viability, T/C [34]: 153%
- viability, T/C [35]: 137%
- viability, T/C [36]: 82.9%

Source: PubChem BioAssay AID1963832 (Molecular Pharmacology Branch, DTP, NCI, 2024)
